US20050049198A1, “Method of modulating the activity of calcium channels in cardiac cells and reagents therefor” (priority 2001, published 2005)
Entries after “also recorded” stand apart in the source; their conditions may differ. Where no end group is shown, it is not given here. [ ]: non-standard residue; d: D form.

Experiments:
cardiac RyR2 channel = experiment: Single channel activity of cardiac RyR2 channels in lipid bilayers; format: biochemical, sheep; details: for effect on cardiac RyR2 channel activity: cis 10^−7M Ca2+
Method: SR vesicles were isolated from sheep heart as described by Layer et al. (1995, J. Membr. Biol. 147:7-22).
Experiments were carried out at 20° C. to 25° C., essentially according to Ahern et al. (1994, FEBS Lett. 352:369-374) and Layer et al. (1995, J. Membr. Biol. 147:7-22). Bilayers were formed from phosphatidylethanolamine, phosphatidylserine and phosphatidylcholine (5:3:2 w/w/w) (Avanti Polar Lipids, Alabaster, Ala.) across an aperture with a diameter of […] in the wall of a 1.0 ml Delrin cup (Cadillac Plastics, Australia). Terminal cisternae (TC) vesicles (final concentration, 10 μg/ml) and drugs were added to the cytoplasmic (i.e. cis) chamber. The bilayer potential was controlled, and single channel activity recorded, using an Axopatch 200A amplifier (Axon Instruments, Foster City, Calif.). For experimental purposes, the cis chamber was held at ground and the voltage of the lumen (i.e. trans) chamber controlled. Bilayer potential is expressed in the conventional way as Vcis−Vtrans, (i.e. Vcytoplasm−Vlumen).
Bilayers were formed as described above and vesicles were incorporated into the bilayer using a cis solution containing 230 mM Cs methanesulphonate (MS), 20 mM CsCl, 1 mM CaCl2 and 10 mM N-tris[hydroxymethyl]methyl-2-aminoethanesulfonic acid (TES, pH 7.4 with CsOH), and a trans solution containing 30 mM Cs MS, 20 mM CsCl, 1 mM CaCl2 and 10 mM TES (pH7.4).
To prevent incorporation of multiple channels into the bilayer, the cis solution was replaced by perfusion of the cis chamber when channel activity was observed. The cis perfusion solution was identical to the initial cis solution, except that the [Ca^2+] was 3×10^−7M, buffered using 1 mM BAPTA. CsMS (200 mM) was added to the trans chamber following channel incorporation to produce symmetrical solutions.
Bilayer potential was changed every 30 s, over 2 min following each addition of peptide to the cis chamber. Control activity was recorded for 2 min after addition of 200 mM CsMS to the trans chamber. Activity was then recorded for 2 min after cis addition of each aliquot of peptide (six different peptide concentrations were examined in each channel). Peptides were perfused out of the cis chamber, and the recovery recorded. Channels were finally exposed to 30 μM ruthenium red.
Currents were filtered at 1 kHz (8-pole low pass Bessel, −3 dB) and digitized at 5 kHz. Analysis of single channel records (using Channel 2, developed by P W Gage and M Smith) yielded channel open probability (Po), frequency of events (Fo), open times, closed times and mean open or closed times (To or Tc) as well as mean current (I′). The event discriminator was set above the baseline noise at ˜20% of the maximum current, rather than the usual 50%, and so openings to both sub conductance and maximum conductance levels were included in the analysis. Channel activity was analyzed over two 30 s periods of continuous activity at +40 mV and two 30 s periods of continuous activity at −40 mV.
The Ca^2+ concentration in the cis solution was either buffered at 100 nM or was adjusted to 100 μM by adding an CaCl2 to the cis solution in the absence of BAPTA.

[1] = system: RyR channels of cardiac SR vesicles; experiment: Ca2+ release from cardiac SR vesicles; format: biochemical, sheep; details: for initial rate of Ca2+ release, peptide alone: 30 μM and 50 μM peptide, no additional activating factors; for Ca2+-activated Ca2+ release / caffeine-activated Ca2+ release: 20 μM Ca2+ or 2 mM caffeine plus peptide; for rate of Ca2+ release in the absence of activating Ca2+ or caffeine: high concentrations of >30 μM peptide
Method: Extravesicular [Ca^2+] was monitored at 710 nm using either a Cary 50 or Cary 100 spectrophotometer. […] Vesicles were loaded with Ca^2+ by 4 additions of 3 μl aliquots of 5 mM CaCl2, to a final concentration of 7.5 μM Ca^2+. Thapsigargin (200 nM) was then added to block the SR Ca^2+ ATPase. Finally the peptides were added either alone, or with 20 μM Ca^2+ or 2 mM caffeine. The rate of Ca^2+ release in the presence of thapsigargin was measured just before addition of the activating agents and initial rates of Ca^2+ release were measured immediately after addition of the activating agents. The specific blocker of RyR activity, […] ruthenium red, was then added to confirm that Ca^2+ release was through RyR channels. The Ca^+ ionophore A23187 (3 μg/ml) was added at the end of the experiment to determine the amount of Ca^2+ remaining in the SR vesicles. When Ca^2+ release was complete, the Ca^2+ transient following addition of the ionophore, was indicative of the fraction of vesicles containing Ca^2+ that could not be released through RyR channel (presumably vesicles from longitudinal SR that lack RyR channels). […] Experiments were repeated on vesicles isolated from 3 different sheep heart preparations.

cardiac RyR2 channels = cardiac RyR2 channels (Homo sapiens, UniProt Q92736); details: cited from earlier work
cardiac RyR2 channels, sequence (Q92736 whole entry): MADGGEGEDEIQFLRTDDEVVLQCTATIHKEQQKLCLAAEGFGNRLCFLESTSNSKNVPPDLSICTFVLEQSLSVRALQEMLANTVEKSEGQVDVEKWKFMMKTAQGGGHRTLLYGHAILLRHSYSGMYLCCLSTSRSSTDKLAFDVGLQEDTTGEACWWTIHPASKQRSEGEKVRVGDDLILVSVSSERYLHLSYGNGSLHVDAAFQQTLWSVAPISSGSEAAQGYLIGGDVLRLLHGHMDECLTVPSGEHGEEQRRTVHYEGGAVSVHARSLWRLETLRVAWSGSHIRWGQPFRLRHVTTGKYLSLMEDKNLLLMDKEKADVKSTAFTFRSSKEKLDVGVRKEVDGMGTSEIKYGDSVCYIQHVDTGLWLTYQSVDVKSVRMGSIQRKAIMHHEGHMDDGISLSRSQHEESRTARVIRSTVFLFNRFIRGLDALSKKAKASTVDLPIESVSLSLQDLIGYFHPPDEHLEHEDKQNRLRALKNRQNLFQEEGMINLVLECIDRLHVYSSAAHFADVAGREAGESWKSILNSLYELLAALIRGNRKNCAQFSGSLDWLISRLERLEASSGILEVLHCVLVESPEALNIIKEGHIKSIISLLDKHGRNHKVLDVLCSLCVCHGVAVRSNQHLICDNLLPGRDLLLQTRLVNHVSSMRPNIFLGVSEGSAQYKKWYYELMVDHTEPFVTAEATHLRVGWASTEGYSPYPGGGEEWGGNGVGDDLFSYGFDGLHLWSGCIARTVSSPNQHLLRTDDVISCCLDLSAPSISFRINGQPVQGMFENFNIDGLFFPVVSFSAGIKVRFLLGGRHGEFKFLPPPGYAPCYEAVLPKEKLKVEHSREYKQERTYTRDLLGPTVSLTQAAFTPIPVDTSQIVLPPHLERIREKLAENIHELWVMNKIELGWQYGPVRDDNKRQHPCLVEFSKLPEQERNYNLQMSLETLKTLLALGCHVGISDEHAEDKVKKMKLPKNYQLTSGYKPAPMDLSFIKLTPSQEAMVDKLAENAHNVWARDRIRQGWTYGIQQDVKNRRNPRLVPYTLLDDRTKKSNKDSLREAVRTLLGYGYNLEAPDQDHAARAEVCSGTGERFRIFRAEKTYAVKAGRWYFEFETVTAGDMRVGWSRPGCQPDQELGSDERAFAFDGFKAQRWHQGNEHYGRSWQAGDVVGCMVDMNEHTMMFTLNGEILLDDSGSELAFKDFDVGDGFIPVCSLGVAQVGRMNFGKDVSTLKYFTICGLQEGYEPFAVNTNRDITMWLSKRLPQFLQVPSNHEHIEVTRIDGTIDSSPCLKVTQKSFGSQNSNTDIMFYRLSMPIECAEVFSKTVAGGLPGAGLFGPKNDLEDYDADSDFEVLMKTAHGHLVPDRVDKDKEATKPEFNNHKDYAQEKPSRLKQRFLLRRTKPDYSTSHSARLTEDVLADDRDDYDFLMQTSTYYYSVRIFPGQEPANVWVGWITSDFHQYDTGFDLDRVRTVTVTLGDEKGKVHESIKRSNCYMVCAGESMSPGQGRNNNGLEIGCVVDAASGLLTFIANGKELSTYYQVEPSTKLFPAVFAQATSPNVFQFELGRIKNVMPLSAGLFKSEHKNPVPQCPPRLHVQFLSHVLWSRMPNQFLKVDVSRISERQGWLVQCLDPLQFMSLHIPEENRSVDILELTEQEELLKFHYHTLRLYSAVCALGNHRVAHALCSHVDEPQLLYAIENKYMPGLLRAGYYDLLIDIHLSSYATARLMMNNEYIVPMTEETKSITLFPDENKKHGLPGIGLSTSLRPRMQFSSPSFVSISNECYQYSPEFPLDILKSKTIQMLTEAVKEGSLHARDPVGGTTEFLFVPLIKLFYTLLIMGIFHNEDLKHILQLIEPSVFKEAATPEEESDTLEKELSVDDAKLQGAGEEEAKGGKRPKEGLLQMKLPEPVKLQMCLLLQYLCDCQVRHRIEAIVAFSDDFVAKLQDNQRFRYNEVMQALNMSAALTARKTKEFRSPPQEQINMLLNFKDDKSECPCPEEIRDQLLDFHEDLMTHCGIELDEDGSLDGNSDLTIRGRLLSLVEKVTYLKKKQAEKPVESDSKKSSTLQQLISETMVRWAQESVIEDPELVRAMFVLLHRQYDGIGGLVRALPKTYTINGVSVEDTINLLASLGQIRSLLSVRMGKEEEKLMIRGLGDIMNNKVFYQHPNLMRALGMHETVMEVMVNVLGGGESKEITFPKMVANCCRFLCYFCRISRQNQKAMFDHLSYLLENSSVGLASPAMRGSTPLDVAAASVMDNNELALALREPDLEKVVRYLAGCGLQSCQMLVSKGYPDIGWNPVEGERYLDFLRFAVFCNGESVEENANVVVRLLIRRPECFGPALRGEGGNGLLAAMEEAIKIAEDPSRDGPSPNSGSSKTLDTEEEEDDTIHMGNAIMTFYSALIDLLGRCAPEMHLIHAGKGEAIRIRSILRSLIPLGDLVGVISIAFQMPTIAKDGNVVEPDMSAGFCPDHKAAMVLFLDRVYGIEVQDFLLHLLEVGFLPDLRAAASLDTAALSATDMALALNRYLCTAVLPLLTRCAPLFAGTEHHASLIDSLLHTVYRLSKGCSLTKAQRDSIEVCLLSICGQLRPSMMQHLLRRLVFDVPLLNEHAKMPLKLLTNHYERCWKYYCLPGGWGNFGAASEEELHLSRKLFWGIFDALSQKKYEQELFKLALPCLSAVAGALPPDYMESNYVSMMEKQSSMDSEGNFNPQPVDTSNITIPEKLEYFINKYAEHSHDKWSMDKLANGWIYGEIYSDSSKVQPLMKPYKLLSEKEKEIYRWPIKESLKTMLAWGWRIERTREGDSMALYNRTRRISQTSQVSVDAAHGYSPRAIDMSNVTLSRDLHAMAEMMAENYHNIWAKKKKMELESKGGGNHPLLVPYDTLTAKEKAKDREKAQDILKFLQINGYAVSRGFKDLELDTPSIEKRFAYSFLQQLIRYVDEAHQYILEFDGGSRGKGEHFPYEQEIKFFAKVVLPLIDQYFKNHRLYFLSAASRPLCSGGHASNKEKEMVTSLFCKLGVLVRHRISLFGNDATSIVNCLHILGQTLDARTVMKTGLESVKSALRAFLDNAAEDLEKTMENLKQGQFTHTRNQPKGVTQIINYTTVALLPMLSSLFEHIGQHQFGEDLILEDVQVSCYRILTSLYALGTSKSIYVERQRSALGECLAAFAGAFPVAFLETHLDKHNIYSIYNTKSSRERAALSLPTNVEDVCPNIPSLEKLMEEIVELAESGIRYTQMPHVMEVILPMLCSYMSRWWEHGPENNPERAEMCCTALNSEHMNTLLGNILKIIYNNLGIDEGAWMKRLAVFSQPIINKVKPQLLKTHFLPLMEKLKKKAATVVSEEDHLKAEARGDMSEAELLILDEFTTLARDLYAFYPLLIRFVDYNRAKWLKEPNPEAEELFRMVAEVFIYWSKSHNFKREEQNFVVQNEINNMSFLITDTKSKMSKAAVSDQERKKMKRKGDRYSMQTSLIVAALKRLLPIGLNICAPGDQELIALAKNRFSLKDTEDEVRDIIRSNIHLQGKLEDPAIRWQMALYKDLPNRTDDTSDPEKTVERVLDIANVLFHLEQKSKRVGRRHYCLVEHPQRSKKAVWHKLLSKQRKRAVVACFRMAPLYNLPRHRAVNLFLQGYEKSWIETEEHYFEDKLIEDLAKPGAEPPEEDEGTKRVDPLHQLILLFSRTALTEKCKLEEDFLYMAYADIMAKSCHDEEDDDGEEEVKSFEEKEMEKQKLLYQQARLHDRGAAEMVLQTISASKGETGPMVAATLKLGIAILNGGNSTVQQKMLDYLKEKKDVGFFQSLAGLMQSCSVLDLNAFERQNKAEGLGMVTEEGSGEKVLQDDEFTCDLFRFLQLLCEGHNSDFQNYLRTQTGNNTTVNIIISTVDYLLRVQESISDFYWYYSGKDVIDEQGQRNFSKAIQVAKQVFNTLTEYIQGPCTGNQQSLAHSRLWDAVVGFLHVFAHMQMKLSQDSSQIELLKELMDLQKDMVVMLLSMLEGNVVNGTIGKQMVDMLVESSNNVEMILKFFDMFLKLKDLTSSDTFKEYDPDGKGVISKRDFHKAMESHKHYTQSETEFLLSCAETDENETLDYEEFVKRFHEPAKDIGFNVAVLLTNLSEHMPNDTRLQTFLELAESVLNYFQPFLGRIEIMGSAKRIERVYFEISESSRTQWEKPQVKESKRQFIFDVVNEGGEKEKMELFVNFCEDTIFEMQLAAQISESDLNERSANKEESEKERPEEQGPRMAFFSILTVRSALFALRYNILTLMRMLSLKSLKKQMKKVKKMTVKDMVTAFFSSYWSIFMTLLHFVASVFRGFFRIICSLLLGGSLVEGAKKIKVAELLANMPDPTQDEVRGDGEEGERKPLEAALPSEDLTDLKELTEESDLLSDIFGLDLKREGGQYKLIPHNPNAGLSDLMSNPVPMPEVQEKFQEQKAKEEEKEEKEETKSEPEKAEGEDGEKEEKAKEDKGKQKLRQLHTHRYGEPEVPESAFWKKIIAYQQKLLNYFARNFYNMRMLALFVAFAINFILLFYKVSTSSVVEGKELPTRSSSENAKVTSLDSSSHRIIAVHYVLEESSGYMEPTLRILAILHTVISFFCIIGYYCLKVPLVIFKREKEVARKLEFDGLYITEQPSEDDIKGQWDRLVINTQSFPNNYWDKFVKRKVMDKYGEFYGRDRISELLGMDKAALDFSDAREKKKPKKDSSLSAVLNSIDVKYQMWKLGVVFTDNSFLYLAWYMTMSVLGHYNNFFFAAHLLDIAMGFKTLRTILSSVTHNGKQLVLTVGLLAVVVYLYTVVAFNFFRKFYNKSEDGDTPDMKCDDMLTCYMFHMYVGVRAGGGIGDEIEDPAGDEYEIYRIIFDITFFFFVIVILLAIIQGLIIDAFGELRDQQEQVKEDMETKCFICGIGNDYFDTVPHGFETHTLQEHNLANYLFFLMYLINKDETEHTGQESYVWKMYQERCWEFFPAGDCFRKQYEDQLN

cardiac SR = cardiac SR (Homo sapiens, UniProt Q92736); details: cited from earlier work
cardiac SR, sequence (Q92736 whole entry): as above

RyR2 = RyR2 (Homo sapiens, UniProt Q92736); details: cited from earlier work
RyR2, sequence (Q92736 whole entry, species assumed): as the sequence (Q92736 whole entry) above

[2] = biological target: cardiac ryanodine receptor (RyR2) calcium channel from sheep heart SR vesicles (sheep, UniProt A0ACI6Q5I6 1-4956); experiment: cell-based or functional assay

GLPDKTEEEKSVMAKKLEQK [peptide NB, non-specific peptide; the N-terminal portion of the B segment of the II-III loop, reference compound]
channel activity (cardiac RyR2 channel; 1 μM or 10 μM cis peptide, +40 mV or −40 mV): no modified channel activity

N.N.N.N.N.N.N.N.N.N.N.N.N.N.[Cl-].[Cl-].[Cl-].[Cl-].[Cl-].[Cl-].[O-2].[O-2].[Ru+3].[Ru+3].[Ru+4] [ruthenium red, reference compound]
effect on Ca2+ release ([1]; added after activating agents): terminated
effect on RyR channel (cardiac RyR2 channel; 30 μM, end of experiment): block the channel

TSAQKAKAEERKRRKMSRGL [SEQ ID NO: 2, 20-mer peptide (Thr671 to Leu690) of the II-III cytoplasmic loop of human skeletal muscle DHPR]
enhancement of [3H]ryanodine binding to cardiac RyR2 channels (cardiac RyR2 channels): not to induce Ca^2+ release from cardiac SR, or to enhance [^3H]ryanodine binding
initial rate of Ca2+ release, peptide alone [1]: small increase
bilayer samples with similar activation and inhibition (cardiac RyR2 channel): 8 out of 8
lowest peptide concentration at which activation of cardiac RyR2 was observed (cardiac RyR2 channel): 1 nM
peptide concentration above which channel opening began to decline (cardiac RyR2 channel; +40 mV): above 100 nM
frequency of opening (cardiac RyR2 channel; +40 mV and −40 mV, after peptide addition to cis chamber): higher frequency of opening
normalized mean current (cardiac RyR2 channel; +40 mV, 10 nM peptide): doubled
channel activity (cardiac RyR2 channel; +40 mV, 65 nM peptide): increased; also recorded: mostly in the open configuration
channel openings (cardiac RyR2 channel; +40 mV, 10 μM peptide): only a few brief channel openings
channel configuration (cardiac RyR2 channel; +40 mV, 32.5 μM peptide): mostly in the closed configuration
normalized mean current at higher peptide concentrations (cardiac RyR2 channel; +40 mV, between about 10 μM and 50 μM peptide): fell dramatically
effect on cardiac RyR2 channel activity (cardiac RyR2 channel; +40 mV): increases and then decreases the activity
effect on cardiac RyR2 channel activity (cardiac RyR2 channel; +40 mV, listed as 20-mer peptide): strong inhibition
duration of channel openings (cardiac RyR2 channel; −40 mV, 10^−7M cis Ca, versus absence of peptide): prolonged channel openings
effect on cardiac RyR2 channel activity (cardiac RyR2 channel; −40 mV): increases the activity
effect on cardiac RyR2 channel activity (cardiac RyR2 channel; −40 mV, listed as 20-mer peptide): significant activation
channel open probability (Po) (cardiac RyR2 channel; −40 mV, particularly at 65 nM peptide): high open probability
RyR2 channel activity (cardiac RyR2 channel; −40 mV, peptide increased to 6.5 μM): fell slightly
channel openings (cardiac RyR2 channel; −40 mV, within 10 s of adding 65 nM peptide): channel openings increased
induction of Ca2+ release from cardiac SR (cardiac SR): not to induce
binding to RyR2 (RyR2): binds

TSAQKAKAEERKRRKMARGL [SEQ ID NO: 8]
initial rate of Ca2+ release, peptide alone [1]: small increase

Cn1c(=O)c2c(ncn2C)n(C)c1=O [caffeine, reference compound]
initial rate of Ca2+ release ([1]; 2 mM caffeine, no peptide): 10 μmoles of Ca^2+ per mg of SR protein per min

TSAQKAKAEERKRRKMARDGL (TSAQKAKAEERKRRKMA[dR]GL) [SEQ ID NO: 10]
Ca2+-activated Ca2+ release / caffeine-activated Ca2+ release [1]: also enhanced
initial rate of Ca2+ release, peptide alone [1]: small increase
rate of Ca2+ release in the absence of activating Ca2+ or caffeine [1]: marginally enhanced

TRKSRLARGQKAKAKSEMRE [Peptide A1S, reference compound]
bilayers in which channel activity was reduced (cardiac RyR2 channel; 1 μM or 10 μM cis peptide): 2 out of 2
cardiac RyR2 channel activity (cardiac RyR2 channel; 1 μM or 10 μM cis peptide): reduced cardiac RyR2 channel activity

TSAQKAKAEERKRRKMSRDGL (TSAQKAKAEERKRRKMS[dR]GL) [SEQ ID NO: 9]
Ca2+-activated Ca2+ release / caffeine-activated Ca2+ release [1]: also enhanced
initial rate of Ca2+ release, peptide alone [1]: small increase
rate of Ca2+ release in the absence of activating Ca2+ or caffeine [1]: marginally enhanced
channel activity (relative mean current) (cardiac RyR2 channel; 100 nM cis Ca2+): clearly enhanced
channel activity (cardiac RyR2 channel; 100 nM cis Ca2+, 10 nM peptide): significant increase in activity
relative mean current at higher peptide concentrations (cardiac RyR2 channel; 100 nM cis Ca2+, 1 and 10 μM peptide, +40 mV): fall
peptide concentration at which depression was seen (cardiac RyR2 channel; 100 nM cis Ca2+, +40 mV): > 100 nM
increase in relative mean current (cardiac RyR2 channel; 100 nM cis Ca2+, both positive and negative potentials): 10-20 fold
channel activity (relative mean current) (cardiac RyR2 channel; 100 μM cis Ca2+): failed to activate channels; also recorded: clearly depressed
peptide concentration of maximum effect (depression) (cardiac RyR2 channel; 100 μM cis Ca2+): 100 nM
voltage dependence of reduction in channel activity (cardiac RyR2 channel; 100 μM cis Ca2+): greater at +40 mV than −40 mV; also recorded: significantly greater at +40 mV
frequency of events (cardiac RyR2 channel; +40 mV and −40 mV): corresponding increase
effect at high peptide concentrations (cardiac RyR2 channel; +40 mV, voltage- and Ca2+-dependent): blocked the channel pore
peptide concentrations enhancing cardiac RyR activity in lipid bilayer (cardiac RyR2 channel; low concentrations): 1 to 10 nM

B1: 20-mer peptide of the II-III cytoplasmic loop of skeletal DHPR alpha-1 subunit (Thr671 to Leu690) (peptide)
peptide: TSAQKAKAEERKRRKMSRGL
mean current (I'p/I'c) at 10 nM peptide, -40 mV or +40 mV [2]: ~2 fold
mean current at -40 mV (increase in 50 µM peptide) [2]: 4 fold

B2: SEQ ID NO: 9 peptide (20-mer of SEQ ID NO: 2 with Arg688 replaced by the D isomer of arginine) (peptide)
peptide: TSAQKAKAEERKRRKMS[dR]GL
mean closed time at +40 mV (decrease) [2]: 80 fold
mean closed time at -40 mV (decrease) [2]: 170 fold
mean open time at both potentials (increase) [2]: 8 fold
open probability at +40 mV (increase) [2]: ~10 fold
open probability at -40 mV (increase) [2]: ~50 fold
